Experimental findings from patent publication US9796711B2, “Substituted pyrazolo[3,4-b]pyridin-6-carboxylic acids and method of use” (AbbVie S.àr.l., priority 2015, dated 2017) are described below.

In test [1] the target is T1, ΔF508-CFTR (Homo sapiens, UniProt P13569, DEL508-508).
T1 construct: host or cells: CFBE41o-, doxycycline-inducible
Nature of the test: CFTR cell surface levels using HRP-tagged ΔF508-CFTR expressing CFBE cells, in the presence of a co-corrector. The format is cell-based. The procedure, abridged:
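Cells were seeded with 0.5 μg/mL doxycycline and held 68 h at 37 °C. Test compounds plus 3 μM co-corrector (final 0.1% DMSO) were then added for 20 h at 33 °C. Washed cells received HRP substrate, and luminescence was normalized between DMSO and 3 μM co-corrector controls.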

For test [2], the target named is T1, ΔF508-CFTR. The experiment in a line: CFTR cell surface levels using HRP-tagged ΔF508-CFTR expressing CFBE cells, intrinsic corrector capacity. It is filed as cell-based. The procedure, abridged: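 Here the cells express ΔF508-CFTR with horseradish peroxidase inserted in extracellular loop 4, so only rescued channel at the surface gives luminescent signal. Compounds act on their own, 20 h at the reduced temperature of 33 °C; values are percent activity relative to DMSO and a 3 μM corrector.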

The mark [3] stands for this setting: HRP-tagged ΔF508-CFTR expressing CFBE cells, in the presence of 3 μM co-corrector.
The mark [4] stands for this setting: HRP-tagged ΔF508-CFTR expressing CFBE cells, in the presence of 3 μM co-corrector, read-out: EC50.
Where [5] appears, read: HRP-tagged ΔF508-CFTR expressing CFBE cells, intrinsic corrector capacity (no co-corrector), 33° C., 20 hours.
Setting [6] is: HRP-tagged ΔF508-CFTR expressing CFBE cells, intrinsic corrector capacity (no co-corrector), 33° C., 20 hours, read-out: EC50.
Setting [7] is: HRP-tagged ΔF508-CFTR CFBE41o- cells, compounds alone (intrinsic corrector capacity), 20 hours at 33° C., positive control 3 μM corrector.
The mark [8] stands for this setting: HRP-tagged ΔF508-CFTR CFBE41o- cells, compounds alone (intrinsic corrector capacity), 20 hours at 33° C., read-out: EC50.

Some results are limits rather than exact numbers.

T1 sequence (P13569 with tags, fused parts or gaps DEL508-508): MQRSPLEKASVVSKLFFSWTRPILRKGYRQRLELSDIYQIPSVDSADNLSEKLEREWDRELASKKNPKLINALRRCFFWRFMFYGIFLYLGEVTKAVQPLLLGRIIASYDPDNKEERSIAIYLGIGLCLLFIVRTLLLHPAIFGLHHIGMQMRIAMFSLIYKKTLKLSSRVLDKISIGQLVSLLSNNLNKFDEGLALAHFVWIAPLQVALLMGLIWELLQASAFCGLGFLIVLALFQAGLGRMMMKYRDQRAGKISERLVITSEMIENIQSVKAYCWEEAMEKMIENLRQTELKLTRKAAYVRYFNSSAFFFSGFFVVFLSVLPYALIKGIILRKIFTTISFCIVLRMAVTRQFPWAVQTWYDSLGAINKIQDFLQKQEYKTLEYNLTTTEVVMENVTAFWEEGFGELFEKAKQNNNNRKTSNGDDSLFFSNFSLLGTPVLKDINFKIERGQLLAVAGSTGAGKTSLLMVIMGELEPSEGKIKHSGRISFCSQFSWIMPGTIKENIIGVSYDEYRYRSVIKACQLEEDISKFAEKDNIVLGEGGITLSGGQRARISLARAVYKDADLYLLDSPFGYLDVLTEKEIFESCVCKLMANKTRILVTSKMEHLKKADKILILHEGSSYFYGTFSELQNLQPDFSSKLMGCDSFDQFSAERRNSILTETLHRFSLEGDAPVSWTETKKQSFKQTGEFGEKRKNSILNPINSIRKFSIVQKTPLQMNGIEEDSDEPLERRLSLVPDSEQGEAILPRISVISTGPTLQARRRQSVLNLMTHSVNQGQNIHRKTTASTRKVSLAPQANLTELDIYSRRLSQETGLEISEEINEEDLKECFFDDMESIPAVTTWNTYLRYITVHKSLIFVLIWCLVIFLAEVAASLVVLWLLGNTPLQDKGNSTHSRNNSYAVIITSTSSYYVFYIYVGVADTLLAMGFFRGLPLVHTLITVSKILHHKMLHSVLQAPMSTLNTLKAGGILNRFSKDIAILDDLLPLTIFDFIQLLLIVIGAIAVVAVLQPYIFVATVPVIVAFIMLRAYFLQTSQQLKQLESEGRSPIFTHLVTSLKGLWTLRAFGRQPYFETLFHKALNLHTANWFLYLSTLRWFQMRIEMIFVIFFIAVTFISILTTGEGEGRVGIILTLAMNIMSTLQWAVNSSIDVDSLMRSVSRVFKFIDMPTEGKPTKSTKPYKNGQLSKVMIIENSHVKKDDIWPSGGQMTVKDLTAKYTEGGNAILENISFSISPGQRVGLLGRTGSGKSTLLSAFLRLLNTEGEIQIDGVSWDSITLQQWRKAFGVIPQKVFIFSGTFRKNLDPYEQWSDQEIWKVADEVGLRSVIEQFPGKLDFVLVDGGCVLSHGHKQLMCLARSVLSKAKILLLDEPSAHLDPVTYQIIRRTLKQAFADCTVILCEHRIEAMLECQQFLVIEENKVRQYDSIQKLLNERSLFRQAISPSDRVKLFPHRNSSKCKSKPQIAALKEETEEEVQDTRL

As a reminder, the EC50 is the concentration needed to bring the measured effect to its halfway point. Regarding `C[C@@H](CN(C)C)Oc1cc(C(=O)O)nc2c1c(C1CCC1)nn2-c1ccccc1` [compound 615, 3-cyclobutyl-4-{[(2S)-1-(dimethylamino)propan-2-yl]oxy}-1-phenyl-1H-pyrazolo[3,4-b]pyridine-6-carboxylic acid], the “% Activation” value on ΔF508-CFTR [1] (setting [3]) was 216.65%; on ΔF508-CFTR [2] (setting [5]), 44.6%. In addition, the values for the EC50 on ΔF508-CFTR [1] (setting [4]) and on ΔF508-CFTR [2] (setting [6]) were 2330 nM and 3330 nM, respectively.

Take `CC(C)N(CCOc1cc(C(=O)O)nc2c1c(C1CCC1)nn2-c1ccccc1)C1COC1` [compound 478, 3-cyclobutyl-4-{2-[(oxetan-3-yl)(propan-2-yl)amino]ethoxy}-1-phenyl-1H-pyrazolo[3,4-b]pyridine-6-carboxylic acid]: the “% Activation” value at ΔF508-CFTR [1] (setting [3]) stood at 292%; on ΔF508-CFTR [2] (setting [5]) it was 125.2%. Further, the EC50 was determined as 409 nM on ΔF508-CFTR [1] (setting [4]) and 828 nM at ΔF508-CFTR [2] (setting [6]).

For `O=C(O)c1cc(N2CC[C@@H](F)C2)c2c(C3CCC3)nn(-c3ccccc3)c2n1` [compound 541, 3-cyclobutyl-4-[(3R)-3-fluoropyrrolidin-1-yl]-1-phenyl-1H-pyrazolo[3,4-b]pyridine-6-carboxylic acid], the figures for the “% Activation” value on ΔF508-CFTR [1] (setting [3]) and on ΔF508-CFTR [2] (setting [5]) were 287.85% and 120.7%, respectively. Moreover, the EC50 on ΔF508-CFTR [1] (setting [4]) came out at 799 nM; on ΔF508-CFTR [2] (setting [6]) it was 988 nM.

Consider `N#CC1CCN(c2ccc(-c3cc(C(=O)O)nc4c3c(C3CCC3)nn4-c3cccc(N4CCCC4)c3)cn2)CC1` [compound 248], for which the “% Activation” value was found to be 606.83% at ΔF508-CFTR [1] (setting [3]) and 405.93% on ΔF508-CFTR [2] (setting [7]). Besides, the values for the EC50 on ΔF508-CFTR [1] (setting [4]) and on ΔF508-CFTR [2] (setting [8]) were 422 nM and 550 nM, respectively.

For `CC(C)Oc1nn(C2CCCCC2)c2nc(C(=O)O)cc(-c3ccc(C(=O)N4CCC(N(C)C)CC4)cc3)c12` [compound 861, 1-cyclohexyl-4-{4-[4-(dimethylamino)piperidine-1-carbonyl]phenyl}-3-[(propan-2-yl)oxy]-1H-pyrazolo[3,4-b]pyridine-6-carboxylic acid], the “% Activation” value on ΔF508-CFTR [1] (setting [3]) amounted to 155.4%; at ΔF508-CFTR [2] (setting [5]), 31.08%.

For the compound `O=C(O)c1cc(OCC2CCCC2(F)F)c2c(C3CCC3)nn(-c3ccccc3)c2n1` (stereo not shown) [compound 486, 3-cyclobutyl-4-[(2,2-difluorocyclopentyl)methoxy]-1-phenyl-1H-pyrazolo[3,4-b]pyridine-6-carboxylic acid], the “% Activation” value at ΔF508-CFTR [1] (setting [3]) was found to be 299%; at ΔF508-CFTR [2] (setting [5]) it was 127%. Besides, the EC50 is 335 nM on ΔF508-CFTR [1] (setting [4]) and 603 nM on ΔF508-CFTR [2] (setting [6]).

`Cc1nn(-c2ccccc2)c2nc(C(=O)O)cc(-c3ccc(N(C)C4COC4)cc3)c12` [compound 140, 3-methyl-4-{4-[methyl(oxetan-3-yl)amino]phenyl}-1-phenyl-1H-pyrazolo[3,4-b]pyridine-6-carboxylic acid]: the “% Activation” value on ΔF508-CFTR [1] (setting [3]) came out at 362.05%; at ΔF508-CFTR [2] (setting [7]) it was 178%. Further, the EC50 on ΔF508-CFTR [1] (setting [4]) turned out to be 941 nM; on ΔF508-CFTR [2] (setting [8]), 1500 nM.

Regarding `COCC1CCN(c2cc(C(=O)O)nc3c2c(C2CCC2)nn3-c2ccnc(C3CCOCC3)c2)CC1` [compound 817, 3-cyclobutyl-4-[4-(methoxymethyl)piperidin-1-yl]-1-[2-(oxan-4-yl)pyridin-4-yl]-1H-pyrazolo[3,4-b]pyridine-6-carboxylic acid], the “% Activation” value amounted to 384.9% at ΔF508-CFTR [1] (setting [3]) and 168% at ΔF508-CFTR [2] (setting [5]). Also, the EC50 on ΔF508-CFTR [1] (setting [4]) is 46.4 nM; on ΔF508-CFTR [2] (setting [6]), 152 nM.

As to `COCC1CCN(c2cc(C(=O)O)nc3c2c(C(C)C)nn3-c2ccnc(N3CCOCC3)n2)CC1` [compound 589], the “% Activation” value at ΔF508-CFTR [1] (setting [3]) came to 451.75%; on ΔF508-CFTR [2] (setting [5]) it was 232.15%. Also, the EC50 at ΔF508-CFTR [1] (setting [4]) is 303 nM; at ΔF508-CFTR [2] (setting [6]) it was 458 nM.

`COCCN1CCN(c2cc(C(=O)O)nc3c2c(C2CCC2)nn3-c2ccccc2)CC1` [compound 571, 3-cyclobutyl-4-[4-(2-methoxyethyl)piperazin-1-yl]-1-phenyl-1H-pyrazolo[3,4-b]pyridine-6-carboxylic acid]: the EC50 on ΔF508-CFTR [1] turned out to be 328 nM; at ΔF508-CFTR [2] it was 812 nM. Also, the “% Activation” value at ΔF508-CFTR [1] (setting [3]) was 334.05%; at ΔF508-CFTR [2] (setting [5]) it was 189.6%.

`CO[C@H]1CCN(c2cc(C(=O)O)nc3c2c(C2CCC2)nn3-c2ccccc2)C1` [compound 512, 3-cyclobutyl-4-[(3S)-3-methoxypyrrolidin-1-yl]-1-phenyl-1H-pyrazolo[3,4-b]pyridine-6-carboxylic acid]: the results for the “% Activation” value on ΔF508-CFTR [1] (setting [3]) and on ΔF508-CFTR [2] (setting [5]) were 286.4% and 103%, respectively. The EC50 on ΔF508-CFTR [1] (setting [4]) was determined as 1420 nM; at ΔF508-CFTR [2] (setting [6]) it was 1170 nM.

For the compound `CC(C)c1nn(-c2cccc(N3CCOCC3)c2)c2nc(C(=O)O)cc(-c3ccc(N4CCC(C#N)CC4)cc3)c12` [compound 206, 4-[4-(4-cyanopiperidin-1-yl)phenyl]-1-[3-(morpholin-4-yl)phenyl]-3-(propan-2-yl)-1H-pyrazolo[3,4-b]pyridine-6-carboxylic acid], the figures for the “% Activation” value at ΔF508-CFTR [1] (setting [3]) and at ΔF508-CFTR [2] (setting [7]) were 661.63% and 466.87%, respectively. The figures for the EC50 on ΔF508-CFTR [1] (setting [4]) and on ΔF508-CFTR [2] (setting [8]) were 246 nM and 323 nM, respectively.

In the case of `O=C(O)c1cc(-c2ccc(N3CCOCC3)cc2)c2c(C3CCCO3)nn(-c3ccccc3)c2n1` (stereo not shown) [compound 186, 4-[4-(morpholin-4-yl)phenyl]-3-(oxolan-2-yl)-1-phenyl-1H-pyrazolo[3,4-b]pyridine-6-carboxylic acid], the “% Activation” value at ΔF508-CFTR [1] (setting [3]) is reported as 378.4%; on ΔF508-CFTR [2] (setting [7]), 168.7%. The EC50 was determined as 1260 nM at ΔF508-CFTR [1] (setting [4]) and 1870 nM on ΔF508-CFTR [2] (setting [8]).

With `Cc1nn(-c2cccc(F)c2)c2nc(C(=O)O)cc(-c3ccc(N4CCOCC4)nc3)c12` [compound 101, 1-(3-fluorophenyl)-3-methyl-4[6-(morpholin-4-yl)pyridin-3-yl]-1H-pyrazolo[3,4-b]pyridine-6-carboxylic acid], the “% Activation” value at ΔF508-CFTR [1] (setting [3]) stood at 331.65%; at ΔF508-CFTR [2] (setting [7]), 143.75%. The EC50 at ΔF508-CFTR [1] (setting [4]) came to 999 nM; on ΔF508-CFTR [2] (setting [8]), 1610 nM.

Regarding `COCCOC1CCN(c2cc(C(=O)O)nc3c2c(C2CCC2)nn3-c2ccccc2)CC1` [compound 685, 3-cyclobutyl-4-[4-(2-methoxyethoxy)piperidin-1-yl]-1-phenyl-1H-pyrazolo[3,4-b]pyridine-6-carboxylic acid], the entries for the “% Activation” value on ΔF508-CFTR [1] (setting [3]) and on ΔF508-CFTR [2] (setting [5]) were 510.3% and 260.5%, respectively. The EC50 at ΔF508-CFTR [1] (setting [4]) was 245 nM; at ΔF508-CFTR [2] (setting [6]), 164 nM.

On to `CC(C)c1nn(-c2ccc(F)cc2)c2nc(C(=O)O)cc(N3CCC(CN4CCCC4)CC3)c12` [compound 811, 1-(4-fluorophenyl)-3-(propan-2-yl)-4-{4-[(pyrrolidin-1-yl)methyl]piperidin-1-yl}-1H-pyrazolo[3,4-b]pyridine-6-carboxylic acid], for which the EC50 at ΔF508-CFTR [1] came to 1080 nM; on ΔF508-CFTR [2], 890 nM. The “% Activation” value at ΔF508-CFTR [1] (setting [3]) is 408.4%; at ΔF508-CFTR [2] (setting [5]), 120.4%.

As to `O=C(O)c1cc(N2CCC3C(CCN3C3CCOCC3)C2)c2c(C3CCC3)nn(-c3ccc(F)cc3)c2n1` (stereo not shown) [compound 903, 3-cyclobutyl-1-(4-fluorophenyl)-4-[1-(oxan-4-yl)octahydro-5H-pyrrolo[3,2-c]pyridin-5-yl]-1H-pyrazolo[3,4-b]pyridine-6-carboxylic acid], the “% Activation” value is recorded as 480.55% on ΔF508-CFTR [1] (setting [3]) and 275.8% at ΔF508-CFTR [2] (setting [5]). The figures for the EC50 on ΔF508-CFTR [1] (setting [4]) and at ΔF508-CFTR [2] (setting [6]) were 108 nM and 331 nM, respectively.

For the compound `CC(C)c1nn(-c2cccc(N(C)C)c2)c2nc(C(=O)O)cc(-c3cnc(N4CCOCC4)nc3)c12` [compound 84, 1-[3-(dimethylamino)phenyl]-4-[2-(morpholin-4-yl)pyrimidin-5-yl]-3-(propan-2-yl)-1H-pyrazolo[3,4-b]pyridine-6-carboxylic acid], the “% Activation” value at ΔF508-CFTR [1] (setting [3]) was 541.12%; on ΔF508-CFTR [2] (setting [7]), 289.83%. Further, the EC50 turned out to be 734 nM at ΔF508-CFTR [1] (setting [4]) and 829 nM on ΔF508-CFTR [2] (setting [8]).

As for `O=C(O)c1cc(N2CC(F)(F)C[C@@H]2CO)c2c(C3CCC3)nn(-c3ccccc3)c2n1` [compound 506, 3-cyclobutyl-4-[(2R)-4,4-difluoro-2-(hydroxymethyl)pyrrolidin-1-yl]-1-phenyl-1H-pyrazolo[3,4-b]pyridine-6-carboxylic acid], the figures for the “% Activation” value on ΔF508-CFTR [1] (setting [3]) and at ΔF508-CFTR [2] (setting [5]) were 137.7% and 40.12%, respectively. In addition, the EC50 at ΔF508-CFTR [1] (setting [4]) was above 10000 nM; on ΔF508-CFTR [2] (setting [6]), 3340 nM.

With `CC(=O)NC1CCN(c2ccc(-c3cc(C(=O)O)nc4c3c(C)nn4-c3ccccc3)cc2)C1` (stereo not shown) [compound 156, 4-[4-(3-acetamidopyrrolidin-1-yl)phenyl]-3-methyl-1-phenyl-1H-pyrazolo[3,4-b]pyridine-6-carboxylic acid], the figures for the “% Activation” value on ΔF508-CFTR [1] (setting [3]) and on ΔF508-CFTR [2] (setting [7]) were 411.55% and 175.5%, respectively. Moreover, the EC50 at ΔF508-CFTR [1] (setting [4]) was 3160 nM; on ΔF508-CFTR [2] (setting [8]) it was 3340 nM.

As to `CN(c1ccc(-c2cc(C(=O)O)nc3c2c(C2CCC2)nn3-c2ccccc2)cn1)C1CCOCC1` [compound 183, 3-cyclobutyl-4-{6-[methyl(oxan-4-yl)amino]pyridin-3-yl}-1-phenyl-1H-pyrazolo[3,4-b]pyridine-6-carboxylic acid], the “% Activation” value on ΔF508-CFTR [1] (setting [3]) worked out at 469.58%; at ΔF508-CFTR [2] (setting [7]), 252.9%. Moreover, the values for the EC50 on ΔF508-CFTR [1] (setting [4]) and at ΔF508-CFTR [2] (setting [8]) were 460 nM and 528 nM, respectively.
